Key:
mice [1] = assay: rotorod test (sedative potential)
[2] = system: metrazol-induced convulsions in mice; assay: metrazol-induced convulsions; format: in vivo; details: Mus musculus, metrazol 85 mg/kg, 95% confidence limits, read-out: MTZ (metrazol) ED50
Protocol: (§1) Experiments were also performed to determine the physiological relevance of these interactions by measuring the ability of the compounds of and used in the invention to modulate TBPS-induced convulsions in Swiss-Webster mice. […] The time to onset of myoclonus (presence of forelimb clonic activity) induced by TBPS was determined by observing each mouse for a period of 45 minutes. Significant differences between the time to onset in control mice vs. steroid-treated mice were determined by Student's t-test. […] The number of animals with tonic and/or clonic convulsions was recorded. In the maximal electroshock test, 50 mA of current at 60 Hz was delivered through corneal electrodes for 200 msec. […] The ED50 (the dose at which the half-maximal effect occurs) dose was determined for each screen.

progesterone receptor = target: T1, progesterone receptor (Rattus norvegicus, UniProt Q63449); assay: [3H]R5020 binding to the progesterone receptor in rat uterus; details: FIG. 5
T1 sequence (Q63449 1-923): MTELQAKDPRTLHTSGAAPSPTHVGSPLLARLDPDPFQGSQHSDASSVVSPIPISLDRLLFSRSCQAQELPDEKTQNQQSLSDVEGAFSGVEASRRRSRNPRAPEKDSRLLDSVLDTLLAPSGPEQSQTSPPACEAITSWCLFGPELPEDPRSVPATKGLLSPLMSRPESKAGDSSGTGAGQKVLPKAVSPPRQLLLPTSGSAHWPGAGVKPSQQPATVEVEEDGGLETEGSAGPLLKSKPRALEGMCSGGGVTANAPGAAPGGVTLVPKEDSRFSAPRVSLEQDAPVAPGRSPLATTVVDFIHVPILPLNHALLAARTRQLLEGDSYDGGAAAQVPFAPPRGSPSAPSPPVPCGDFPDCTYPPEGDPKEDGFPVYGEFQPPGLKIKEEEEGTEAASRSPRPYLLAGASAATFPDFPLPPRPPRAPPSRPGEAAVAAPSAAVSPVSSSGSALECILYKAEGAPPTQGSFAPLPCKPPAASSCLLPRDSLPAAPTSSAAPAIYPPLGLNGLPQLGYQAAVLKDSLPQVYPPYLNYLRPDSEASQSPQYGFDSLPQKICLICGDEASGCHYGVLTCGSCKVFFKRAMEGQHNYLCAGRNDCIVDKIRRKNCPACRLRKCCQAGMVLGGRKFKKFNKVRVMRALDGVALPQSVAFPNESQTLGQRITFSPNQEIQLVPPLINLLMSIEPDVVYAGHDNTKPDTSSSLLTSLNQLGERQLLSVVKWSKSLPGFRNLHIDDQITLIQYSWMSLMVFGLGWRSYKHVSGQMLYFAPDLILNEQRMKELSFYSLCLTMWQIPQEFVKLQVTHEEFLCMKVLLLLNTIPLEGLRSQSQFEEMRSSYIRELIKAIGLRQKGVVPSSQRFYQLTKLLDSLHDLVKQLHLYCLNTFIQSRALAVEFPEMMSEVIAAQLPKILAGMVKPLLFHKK
From the text: The data plotted in FIG. 5 were obtained by performing assays in accordance with the procedures outlined above to determine the effect of progesterone metabolites and the progestin R5020 on the binding of [^3 H]R5020 to the progesterone receptor in rat uterus. All points on the plot of FIG. 5 represent the mean of triplicate determinations. The following compounds are those listed in FIG. 5: 5-alpha-pregnan-3-alpha-ol-20-one (DHP), 5-alpha-pregnan-3-alpha,21-diol-20-one (Th-DOC), and 5-beta-pregnane-3-alpha,20 diol (5 BETA).

[3] = system: GBR complex ([35S]TBPS site); assay: dissociation kinetics of [35S]TBPS in cortical P2 homogenates; format: binding, rat; details: for effect on dissociation mechanism/kinetics of [35S]TBPS (in words): pentobarbital 30 micromolar, alphaxalone 300 nanomolar, 5-alpha-pregnan-3-alpha-hydroxy-20-one 20 nanomolar
Protocol: An assay was performed to determine the effect of pentobarbital on the dissociation kinetics of [^35 S]TBPS in rat cerebral cortical membranes. This assay was performed in accordance with the procedures outlined above. […] Dissociation of bound [^35 S]TBPS was initiated by 2 micromolar TBPS in all cases.

mice [4] = assay: acute LD50; details: mice
acute LD50 = details: mouse, in vivo
[5] = system: (+)bicuculline-induced seizures in mice; assay: animal or person; format: in vivo
Protocol: as §1

[6] = system: picrotoxin-induced convulsions in mice; assay: picrotoxin-induced convulsions; format: in vivo; details: Mus musculus, read-out: PICRO (picrotoxin) ED50
Protocol: as §1

[7] = system: strychnine-induced convulsions in mice; assay: strychnine-induced convulsions; format: in vivo; details: Mus musculus, read-out: STR (strychnine) ED50
Protocol: as §1

BZ receptor = assay: modulation of [3H] flunitrazepam binding; set-up: species or system rat; details: pentobarbital 1.0 millimolar; 0.25 nM [3H]FLU; absence of GABA

CC(=O)[C@H]1CC[C@H]2[C@@H]3CC[C@H]4C[C@H](O)CC[C@]4(C)[C@H]3CC[C@]12C [3α-hydroxy-5α-pregnan-20-one]
sedative liability at anticonvulsant doses (mice [1]; ED50 rotorod versus (+)bicuculline-induced seizures): low
Rotorod (RR) ED50 (mice [1]; mice, 10 minutes after injection, 6 rpm rod): 40-100
ED50 [2]: 18.8 ± 1.1 mg/kg
affinity for the progesterone receptor (progesterone receptor): lack of affinity
Total percentage of specific sites, rapidly dissociating (R) ([3]; (**P < 0.01 vs control), alphaxalone 300 nM, 3a-OH-DHP 20 nM): 35 ± 3 percentage
Total percentage of specific sites, slowly dissociating (S) ([3]; (*P < 0.05 vs control), alphaxalone 300 nM, 3a-OH-DHP 20 nM): 68 ± 3 percentage
k-1, slowly dissociating component (S) ([3]; [35S]TBPS dissociation, pentobarbital 30 nM [sic], alphaxalone 300 nM, 3a-OH-DHP 20 nM): 0.011 min⁻¹
effect on dissociation mechanism/kinetics of [35S]TBPS (in words) [3]: absent
effect on dissociation mechanism/kinetics of [35S]TBPS (in words) ([3]; listed as 5-alpha-pregnan-3-alpha-ol-20-one): do not influence the dissociation kinetics
toxicity (in words) (mice [4]): very low toxicity
LD50 (acute LD50): > 500 mg/kg
ED50 ([5]; Mus musculus, (+)bicuculline 2.7 mg/kg, 95% confidence limits, read-out: BIC (bicuculline) ED50): 4.1 ± 1.7 mg/kg
anticonvulsant effectiveness (in words) ([5]; compared with clinically useful anticonvulsants, Table 3): highly effective with a profile similar to that of the benzodiazepine clonazepam
ED50 [6]: 31.7 ± 1.1 mg/kg
ED50 [7]: > 300 mg/kg
interaction with pentobarbital in enhancement of [3H] flunitrazepam binding (BZ receptor): does not interact with pentobarbital
